Experimental findings from US20230313199A1, “TARGET FOR MODULATING BODY MASS” (Massachusetts Institute of Technology, priority 2020, published 2023) are described below.

Molecules are shown by their SMILES.

Assay type in all cases: cell-based, human
The test system of one test is 4B8^FL cells. Put plainly: MMP (JC-10 kit, flow cytometry) in 4B8 cells complemented with full length MFSD7C. Particulars: heme 1 hour. How it is done: FIGS. 4A-4H show NTD of MFSD7C mediates heme effect on mitochondrial respiration. FIGS. 4A-4C show comparison of basal OCR (FIG. 4A), maximal OCR (FIG. 4B) and ECAR (FIG. 4C) of THP-1, 4B8, and 4B8^FL and 4B8^ΔN cells treated with vehicle or heme for 1 hour (n=18 separate experiments). […] Cells were incubated with FPT for 6 hrs, washed and reseeded in poly-lysine coated glass bottom dishes. After cells attached to the glass, medium containing 40 μM heme was added. Cells in the same field were imaged immediately and again 1 hour later. Relative FPT fluorescent intensities, normalized to THP-1, from three experiments are shown. (n=3 independent experiments). […] THP-1 cells were co-cultured with 4B8, 4B8^FL, or 4B8^ΔN in FPT solution for 6 hrs, washed and reseeded in poly-lysine coated glass bottom dishes. Cells were imaged by confocal laser-scanning microscopy. […] Representative images from three experiments are shown. Scale bar: 10 μm. […] THP-1, 4B8, 4B8^FL and 4B8^ΔN cells were treated with vehicle or heme for 1 hour and MMP was measured by using JC-10 Mitochondrial Membrane Potential Assay Kit followed by flow cytometry. […] Shown are representative Western blotting data (FIG. 4G) and quantification of band intensities from n=3 independent experiments (FIG. 4H). P-values were calculated using two-way ANOVA (*p<0.05, **p<0.01, ***p<0.005). […]

The subject of a further test is THP-1 cells. As to the kind of experiment: Thermogenesis by fluorescent polymeric thermometer (FPT), flow cytometry. Particulars: heme treatment for one hour. As to the method: In the second approach, we used fluorescent polymeric thermometer (FPT), which we synthesized in-house (see above). Parental and knockout THP-1 cells were mixed together, washed and incubated with FPT in 5% w/v glucose solution for 6 hrs. The cells were washed with PBS twice and reseeded in dishes with glass bottom that was coated with poly-lysine. The cells were imaged under Confocal Laser-Scanning Microscopy at 37° C. Alternatively, THP-1, MCF7, 293T, 7CKO, SERCA2b^−/− cells were incubated with FPT and control polymer overnight and followed with vehicle or hematin treatment for 1 hour. Then the fluorescence intensities were determined by a flow cytometer.

A further test deals with 293T cells. Put plainly: Thermogenesis by FPT, parental 293T cells. Particulars: heme for 1 hour. As to the method: Shown are representative graphs of OCR output of the indicated cells with or without hematin treatment and their responses to oligomycin, FCCP, and rotenone plus antimycin A (FIG. 12B), basal OCR (FIG. 12C), maximal OCR (FIG. 12D), and ECAR (FIG. 12E) from two separate experiments with n=10 biologically independent samples. Data are presented as mean value±standard deviation. Each dot represents one technical replicate. […] Parental and knockout cells were incubated with no probe or FPT for 6 hours, and then washed twice. A portion of FPT-treated cells was treated with heme for 1 hour. FPT fluorescence intensity was quantified by flow cytometry. Shown are representative plots from two separate experiments. P-values were calculated using two-way ANOVA (***p<0.001).
In the second approach, we used fluorescent polymeric thermometer (FPT), which we synthesized in-house (see above). Parental and knockout THP-1 cells were mixed together, washed and incubated with FPT in 5% w/v glucose solution for 6 hrs. The cells were washed with PBS twice and reseeded in dishes with glass bottom that was coated with poly-lysine. The cells were imaged under Confocal Laser-Scanning Microscopy at 37° C. […] Then the fluorescence intensities were determined by a flow cytometer.

The test system of a further test is 4B8^ΔN cells. As to the kind of experiment: OCR, ECAR, FPT intensity and MMP in 4B8 cells complemented with NTD-truncated MFSD7C. Particulars: heme 1 hour. As to the method:
FIGS. 4A-4H show NTD of MFSD7C mediates heme effect on mitochondrial respiration. FIGS. 4A-4C show comparison of basal OCR (FIG. 4A), maximal OCR (FIG. 4B) and ECAR (FIG. 4C) of THP-1, 4B8, and 4B8^FL and 4B8^ΔN cells treated with vehicle or heme for 1 hour (n=18 separate experiments). […] Cells were incubated with FPT for 6 hrs, washed and reseeded in poly-lysine coated glass bottom dishes. After cells attached to the glass, medium containing 40 μM heme was added. Cells in the same field were imaged immediately and again 1 hour later. Relative FPT fluorescent intensities, normalized to THP-1, from three experiments are shown. (n=3 independent experiments). […] THP-1, 4B8, 4B8^FL and 4B8^ΔN cells were treated with vehicle or heme for 1 hour and MMP was measured by using JC-10 Mitochondrial Membrane Potential Assay Kit followed by flow cytometry. […] Shown are representative Western blotting data (FIG. 4G) and quantification of band intensities from n=3 independent experiments (FIG. 4H). P-values were calculated using two-way ANOVA (*p<0.05, **p<0.01, ***p<0.005). […]
Measurements of OCR, ECAR, and MMP. Oxygen consumption rate (OCR) and extracellular acidification rate (ECAR) were measured using XF96e Seahorse Extracellular Flux Analyzer per manufacturer's protocol. […]

As for `C=CC1=C(C)c2cc3[n-]c(cc4[n-]c(cc5nc(cc1n2)C(C)=C5C=C)c(C)c4CCC(=O)O)c(CCC(=O)O)c3C.[Fe+2]` [heme], in the test with 4B8^FL cells, the MMP result is recorded as “decreased”. In addition, the “FPT fluorescence by flow cytometry” value in the test with THP-1 cells is “almost all cells had dramatically increased fluorescence”. Moreover, in the test with 293T cells, the FTP intensity entry is reported as “significantly stimulated”. Also, the “response to heme (OCR, ECAR, FPT intensity, MMP)” value in the test on 4B8^ΔN cells was “little to no response to heme”.
